From patent US20230026611A1, “ARYL HETEROCYCLIC COMPOUNDS AS Kv1.3 POTASSIUM SHAKER CHANNEL BLOCKERS” (D. E. Shaw Research, LLC, priority 2019, published 2023)

Legend:
hERG channel = hERG channel (Homo sapiens, UniProt Q12809); assay: hERG electrophysiology, automated whole-cell patch clamp (Patchliner) in CHO-K1 cells stably expressing hERG
Procedure: Evaluation of hERG Activities
This assay is used to evaluate the disclosed compounds's inhibition activities against the hERG channel.
CHO-K1 cells stably expressing hERG were grown in Ham's F-12 Medium with glutamine containing 10% heat-inactivated FBS, 1% penicillin/streptomycin, hygromycin (100 μg/ml) and G418 (100 μg/ml). Cells were grown in culture flasks at 37° C. in a 5% CO2-humidified incubator.
The cells were bathed in an extracellular solution containing 140 mM NaCl, 4 mM KCl, 2 mM CaCl2), 1 mM MgCl2, 5 mM Glucose, 10 mM HEPES; pH adjusted to 7.4 with NaOH; 295-305 mOsm. The internal solution contained 50 mM KCl, 10 mM NaCl, 60 mM KF, 20 mM EGTA, 10 mM HEPES; pH adjusted to 7.2 with KOH; 285 mOsm. All compounds were dissolved in DMSO at 30 mM. Compound stock solutions were freshly diluted with external solution to concentrations of 30 nM, 100 nM, 300 nM, 1 μM, 3 μM, 10 μM, 30 μM and 100 μM. The highest content of DMSO (0.3%) was present in 100 μM.
The voltage protocol (see Table B) was designed to simulate voltage changes during a cardiac action potential with a 300 ms depolarization to +20 mV (analogous to the plateau phase of the cardiac action potential), a repolarization for 300 ms to −50 mV (inducing a tail current) and a final step to the holding potential of −80 mV. The pulse frequency was 0.3 Hz. Control (compound-free) and compound pulse trains for each compound concentration applied contained 70 pulses.
Whole-cell current recordings and compound application were enabled by means of an automated patch clamp platform Patchliner (Nanion). EPC 10 patch clamp amplifier (HEKA) along with Patchmaster software (HEKA Elektronik Dr. Schulze GmbH) was used for data acquisition. Data were sampled at 10 kHz without filtering. Increasing compound concentrations were applied consecutively to the same cell without washouts in between.
AUC and PEAK values were obtained with Patchmaster (HEKA Elektronik Dr. Schulze GmbH). To determine IC50 the last single pulse in the pulse train corresponding to a given compound concentration was used. Obtained AUC and PEAK values in the presence of compound were normalized to control values in the absence of compound. Using Origin (OridinLab), IC50 was derived from data fit to Hill equation: Icompound/control=(100−A)/(1+([compound]/IC50)nH)+A, where IC50 is the concentration at which current inhibition is half-maximal, [compound] is the applied compound concentration, A is the fraction of current that is not blocked and nH is the Hill coefficient.

Kv1.3 potassium channel = target: T1, Kv1.3 potassium channel (Homo sapiens, UniProt P22001); assay: Kv1.3 potassium channel blocker activity, automated whole-cell patch clamp (Patchliner) in CHO-K1 cells stably expressing Kv1.3; assay type: cell-based; settings: CHO-K1 cells stably expressing Kv1.3; patch clamp, current inhibition; read-out: Kv1.3 IC50
T1 construct: expressed in transfected cells
T1 sequence (P22001 whole entry): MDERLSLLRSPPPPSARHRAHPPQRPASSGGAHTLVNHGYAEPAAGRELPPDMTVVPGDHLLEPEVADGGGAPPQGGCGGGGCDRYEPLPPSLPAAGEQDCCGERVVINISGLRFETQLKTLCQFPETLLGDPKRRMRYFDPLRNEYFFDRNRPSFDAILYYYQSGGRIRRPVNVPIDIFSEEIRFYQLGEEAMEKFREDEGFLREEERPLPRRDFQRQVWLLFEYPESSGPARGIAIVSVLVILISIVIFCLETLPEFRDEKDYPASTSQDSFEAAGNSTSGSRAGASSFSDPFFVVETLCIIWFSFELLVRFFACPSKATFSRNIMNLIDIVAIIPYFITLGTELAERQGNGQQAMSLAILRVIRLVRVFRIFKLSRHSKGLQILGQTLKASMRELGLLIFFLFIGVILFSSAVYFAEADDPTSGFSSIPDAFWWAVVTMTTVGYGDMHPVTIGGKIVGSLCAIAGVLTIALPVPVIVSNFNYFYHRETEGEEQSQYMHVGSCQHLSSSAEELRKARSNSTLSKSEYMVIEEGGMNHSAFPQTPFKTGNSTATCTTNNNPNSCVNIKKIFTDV
Procedure: Example 82. Evaluation of Kv1.3 potassium channel blocker activities
This assay is used to evaluate the disclosed compounds' activities as Kv1.3 potassium channel blockers.
CHO-K1 cells stably expressing Kv1.3 were grown in DMEM containing 10% heat-inactivated FBS, 1 mM sodium pyruvate, 2 mM L-glutamine, and G418 (500 μg/ml).
All compounds were dissolved in DMSO at 30 mM.
The currents were evoked by applying 100 ms depolarizing pulses from −90 mV (holding potential) to +40 mV were applied with 0.1 Hz frequency. […] 10-second breaks were used between pulse trains (see Table A below).
Data were sampled at 10 kHz without filtering. Passive leak currents were subtracted online using a P/4 procedure (HEKA Elektronik Dr. Schulze GmbH). […] Total compound incubation time before the next pulse train was not longer than 10 seconds. Peak current inhibition was observed during compound equilibration.

Sequence of hERG channel (Q12809 whole entry): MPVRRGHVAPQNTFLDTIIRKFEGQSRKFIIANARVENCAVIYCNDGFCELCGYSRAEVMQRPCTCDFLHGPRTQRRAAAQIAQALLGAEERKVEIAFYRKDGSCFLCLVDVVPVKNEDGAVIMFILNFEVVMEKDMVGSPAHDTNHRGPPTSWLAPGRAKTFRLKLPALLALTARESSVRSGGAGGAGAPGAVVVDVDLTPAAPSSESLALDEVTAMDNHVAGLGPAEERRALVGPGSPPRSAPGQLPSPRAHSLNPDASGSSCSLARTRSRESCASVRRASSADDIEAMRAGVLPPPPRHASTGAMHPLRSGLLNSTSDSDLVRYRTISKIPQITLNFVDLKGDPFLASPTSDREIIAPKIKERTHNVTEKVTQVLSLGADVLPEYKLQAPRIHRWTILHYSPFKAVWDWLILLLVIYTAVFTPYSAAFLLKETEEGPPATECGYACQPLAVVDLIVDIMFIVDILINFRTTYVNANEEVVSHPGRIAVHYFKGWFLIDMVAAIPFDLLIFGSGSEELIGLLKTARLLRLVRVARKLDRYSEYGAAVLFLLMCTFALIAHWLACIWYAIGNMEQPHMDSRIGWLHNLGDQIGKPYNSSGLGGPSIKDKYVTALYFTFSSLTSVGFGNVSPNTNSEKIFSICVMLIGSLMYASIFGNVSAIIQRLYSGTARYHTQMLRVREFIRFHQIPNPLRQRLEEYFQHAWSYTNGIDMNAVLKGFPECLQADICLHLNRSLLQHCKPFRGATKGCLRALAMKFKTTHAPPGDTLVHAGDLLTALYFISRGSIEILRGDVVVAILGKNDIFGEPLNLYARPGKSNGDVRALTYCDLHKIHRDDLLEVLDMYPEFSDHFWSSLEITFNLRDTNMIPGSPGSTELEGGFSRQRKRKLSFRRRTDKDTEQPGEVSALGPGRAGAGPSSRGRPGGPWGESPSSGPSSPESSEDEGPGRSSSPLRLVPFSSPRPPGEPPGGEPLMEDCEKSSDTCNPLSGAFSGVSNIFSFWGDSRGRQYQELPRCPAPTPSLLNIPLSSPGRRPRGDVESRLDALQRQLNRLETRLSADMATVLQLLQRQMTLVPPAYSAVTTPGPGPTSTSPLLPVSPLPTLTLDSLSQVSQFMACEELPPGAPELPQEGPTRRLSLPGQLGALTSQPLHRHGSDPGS

Structure (SMILES)	IC50 (hERG channel) [µM]	IC50 (Kv1.3 potassium channel) [µM]
NC[C@H]1C[C@@H](c2c(O)ccc(Cl)c2Cl)CCN1 (relative stereo) [Compound 74, (2R,4S)-rel-2-(aminomethyl)piperidin-4-yl]-3,4-dichlorophenol]	> 30	< 1
NC(=O)[C@H]1C[C@@H](c2cc(Cl)c(Cl)cc2O)CCN1 (relative stereo) [Compound 85, (2R,4S)-rel-4-(4,5-dichloro-2-hydroxyphenyl)piperidine-2-carboxamide]	> 30	< 1
O=S(=O)(NC[C@H]1C[C@@H](c2c(O)ccc(Cl)c2Cl)CCN1)C1CC1 (relative stereo) [Compound 97, N-(2R,4S)-rel-[[4-(2,3-dichloro-6-hydroxyphenyl)piperidin-2-yl]methyl]cyclopropanesulfonamide]	> 30	< 1
NC(=O)C[C@H]1C[C@@H](c2c(O)ccc(Cl)c2Cl)CCN1 (relative stereo) [Compound 108, 2-[(2R,4S)-rel-4-(2,3-dichloro-6-hydroxyphenyl)piperidin-2-yl]acetamide]	> 30	< 1
CS(=O)(=O)NC[C@H]1C[C@@H](c2c(O)ccc(Cl)c2Cl)CCN1 (relative stereo) [Compound 110, (2R,4S)-rel-N-[[4-(2,3-dichloro-6-hydroxyphenyl)piperidin-2-yl]methyl]methanesulfonamide]	> 30	< 1
O=C(C[C@H]1C[C@@H](c2c(O)ccc(Cl)c2Cl)CCN1)NC1CCC1 (relative stereo) [Compound 111, N-cyclobutyl-(2R,4S)-rel-2-[4-(2,3-dichloro-6-hydroxyphenyl)piperidin-2-yl]acetamide]	< 30	< 1
O=C(C[C@H]1C[C@@H](c2c(O)ccc(Cl)c2Cl)CCN1)N1CCOCC1 (relative stereo) [Compound 113, 2-[4-(2,3-dichloro-6-hydroxyphenyl)piperidin-2-yl]-1-(morpholin-4-yl)ethan-1-one]	> 30	< 1
Cn1cc(NC(=O)C[C@H]2C[C@@H](c3c(O)ccc(Cl)c3Cl)CCN2)cn1 (relative stereo) [Compound 114, (2R,4S)-rel-2-[4-(2,3-dichloro-6-hydroxyphenyl)piperidin-2-yl]-N-(1-methyl-1H-pyrazol-4-yl)acetamide]	> 30	< 1
CNC(=O)C[C@H]1C[C@@H](c2c(O)ccc(Cl)c2Cl)CCN1 (relative stereo) [Compound 115, 2-[4-(2,3-dichloro-6-hydroxyphenyl)piperidin-2-yl]-N-methylacetamide]	> 30	< 1
CNC(=O)C[C@@H]1C[C@H](c2c(O)ccc(Cl)c2Cl)CCN1 (single isomer, unassigned) [Compound 14]	> 30	< 1
CNC(=O)C[C@H]1C[C@@H](c2c(O)ccc(Cl)c2Cl)CCN1 (single isomer, unassigned) [Compound 30]	> 30	< 1
O=C(C[C@@H]1C[C@H](c2c(O)ccc(Cl)c2Cl)CCN1)N1CCOCC1 (single isomer, unassigned) [Compound 32]	> 30	< 1
Oc1cc(Cl)c(Cl)cc1C1CCNC1 (single isomer, unassigned) [Compound 38, 4,5-dichloro-2-(pyrrolidin-3-yl)phenol]	< 30	< 1
NC(=O)[C@H]1CNCC[C@H]1c1cc(Cl)c(Cl)cc1O (single isomer, unassigned) [Compound 42]	> 30	< 1
NC(=O)[C@@H]1C[C@H](c2c(O)cc(Cl)c(Cl)c2Cl)CCN1 (single isomer, unassigned) [Compound 63]	< 30	< 1
NC(=O)[C@H]1C[C@@H](c2c(O)cc(Cl)c(Cl)c2Cl)CCN1 (single isomer, unassigned) [Compound 65]	< 30	< 1
O=C(C[C@H]1CC(c2c(O)ccc(Cl)c2Cl)CCN1)N1CCOCC1 (single isomer, unassigned) [Compound 67]	> 30	< 1
NC(=O)[C@H]1C[C@@H](c2c(O)ccc(Cl)c2Cl)CCN1 (single isomer, unassigned) [Compound 70]	> 30	< 1

Structure (SMILES)	IC50 (hERG channel) [µM]	IC50 (Kv1.3 potassium channel) [µM]
Oc1cc(Cl)c(Cl)cc1N1CCCNCC1 [Compound 37, 4,5-dichloro-2-(1,4-diazepan-1-yl)phenol]		< 10
Oc1cc(C(F)F)c(Cl)cc1C1CCNCC1 [Compound 41, 4-chloro-5-(difluoromethyl)-2-(piperidin-4-yl)phenol]		< 10
Oc1cc(Cl)c(Cl)c(Cl)c1C1=CCNCC1 [Compound 46, 3,4,5-trichloro-2-(1,2,3,6-tetrahydropyridin-4-yl)phenol]		< 10
Oc1cc(Cl)c(Cl)cc1C1CCNCC1n1ccnn1 (stereo not drawn) [Compound 62, 4,5-dichloro-2-[3-(1H-1,2,3-triazol-1-yl)piperidin-4-yl]phenol]		< 10
Oc1cccc(Cl)c1C1CCNCC1 [Compound 66, 3-chloro-2-(piperidin-4-yl)phenol]		< 10
Oc1ccc(F)c(Cl)c1C1CCNCC1 [Compound 68, 3-chloro-4-fluoro-2-(piperidin-4-yl)phenol]		< 10
Oc1ccc(C2CC2)c(Cl)c1C1CCNCC1 [Compound 69, 3-chloro-4-cyclopropyl-2-(piperidin-4-yl)phenol]		< 30
Cc1ccc(O)c(C2CCNCC2)c1Cl [Compound 71, 3-chloro-4-methyl-2-(piperidin-4-yl)phenol]		< 30
O=C(C1CC(c2c(O)ccc(Cl)c2Cl)CCN1)N1CCNCC1 (stereo not drawn) [Compound 75, 3,4-dichloro-2-[2-(piperazine-1-carbonyl)piperidin-4-yl]phenol]		< 10
Oc1ccc(Br)c(Cl)c1C1CCNCC1 [Compound 81, 4-bromo-3-chloro-2-(piperidin-4-yl)phenol]		< 1
CC1(C(N)=O)CC(c2c(O)ccc(Cl)c2Cl)CCN1 (stereo not drawn) [Compound 83, 4-(2,3-dichloro-6-hydroxyphenyl)-2-methylpiperidine-2-carboxamide]		< 10
O=C(O)C1CC(c2c(O)ccc(Cl)c2Cl)CCN1 (stereo not drawn) [Compound 84, 4-(2,3-dichloro-6-hydroxyphenyl)piperidine-2-carboxylic acid]		< 10
O=C1NCCC12CC(c1c(O)ccc(Cl)c1Cl)CCN2 (stereo not drawn) [Compound 87, 9-(2,3-dichloro-6-hydroxyphenyl)-2,6-diazaspiro[4.5]decan-1-one]		< 10
NC(=O)C1CCCN(c2c(O)ccc(Cl)c2Cl)C1 (stereo not drawn) [Compound 88, 1-(2,3-dichloro-6-hydroxyphenyl)piperidine-3-carboxamide]		< 10
NC(=O)[C@H]1CN(c2c(O)ccc(Cl)c2Cl)CCN1 [Compound 90, (2R)-4-(2,3-dichloro-6-hydroxyphenyl)piperazine-2-carboxamide]		< 10
NC(=O)[C@@H]1CN(c2c(O)ccc(Cl)c2Cl)CCN1 [Compound 92]		< 10
O=S(=O)(C1CCNC1)N1CCC(c2c(O)cc(Cl)c(Cl)c2Cl)CC1 (stereo not drawn) [Compound 95, 3,4,5-trichloro-2-[1-(pyrrolidine-3-sulfonyl)piperidin-4-yl]phenol]		< 10
NC(=O)[C@H]1CN(c2c(O)cc(Cl)c(Cl)c2Cl)CCN1 [Compound 96, (2R)-4-(2,3,4-trichloro-6-hydroxyphenyl)piperazine-2-carboxamide]		< 1
